Assay results from ChEMBL document CHEMBL3638389, “Chemokine receptor antagonists” (2014).

Target: C-C chemokine receptor type 2 (Homo sapiens, UniProt P41597)
Test: Radioligand Binding Assay: Radioligand binding assays were performed in CHO cells expressing human CCR2B and Galpha±16 coupling protein. All compounds were dissolved in DMSO and assays run at a final DMSO concentration of 0.5% (v/v). [125I]-labeled human MCP-1 was purchased from PerkinElmer. Unlabelled human MCP-1 was purchased from PeproTech.Compounds were serially diluted in DMSO before diluting into assay buffer (25 mM HEPES, pH 7.4, 5 mM MgCl2, 1 mM CaCl2, 0.5% BSA) with cryo preserved CHO cells expressing human CCR2B and the Galpha±16 coupling protein (30x10^3/well) and [125I]-MCP-1 (50 pM). The reaction was incubated at room temperature for 90 minutes before transferring to GF/C filter membrane (PerkinElmer) pre-treated with 0.3% polyethyleneimine for 2 hours at 4 C. The filter membrane was washed six times with ice cold wash buffer (25 mM HEPES, pH 7.4, 5 mM MgCl2, 1 mM CaCl2, 500 mM NaCl, 0.01% (m/v) azide), dried, and sealed in a RLB sample bag (Agilent Technologies).
Format: cell-based

C-C chemokine receptor type 2, sequence (P41597 whole entry): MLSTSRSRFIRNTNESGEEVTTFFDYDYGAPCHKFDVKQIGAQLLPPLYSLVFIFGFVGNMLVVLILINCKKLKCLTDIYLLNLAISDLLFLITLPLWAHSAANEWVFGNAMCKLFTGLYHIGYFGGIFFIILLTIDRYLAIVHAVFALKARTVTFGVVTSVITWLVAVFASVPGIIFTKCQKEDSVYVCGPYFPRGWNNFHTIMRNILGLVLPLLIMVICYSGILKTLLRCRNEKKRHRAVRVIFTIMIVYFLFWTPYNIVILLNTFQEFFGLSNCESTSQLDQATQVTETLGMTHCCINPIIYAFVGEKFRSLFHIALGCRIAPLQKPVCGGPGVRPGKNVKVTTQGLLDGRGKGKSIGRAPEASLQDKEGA

Compound | IC50 [nM] | Ki [nM]
CO[C@@H]1COCC[C@@H]1N[C@@H]1C[C@H]2CCC[C@@]2(C(=O)N2C[C@@H]3C[C@H]2CN3c2cc(C(F)(F)F)cc(C(F)(F)F)c2)C1 | 1520 | 
CO[C@@H]1COCC[C@@H]1N[C@@H]1C[C@H]2CCC[C@@]2(C(=O)N2C[C@@H]3C[C@H]2CN3c2ccc(Cl)c(C(F)(F)F)c2)C1 | 17.6 | 17
